Test results reported in US20110269721A1, “METHODS OF TREATING THALASSEMIA” (TargeGen, Inc., priority 2008, published 2011).

Assays:
[1] = tested on: purified erythroid cells isolated from the spleens of normal and thalassemic mice; experiment: Primary splenic erythroid cell cultures with CFSE staining (cell proliferation); assay type: cell-based, mouse; conditions: for CFSE FACS profile versus untreated cells: erythroid cells from wt mice, FIG. 2A legend, n=4 per genotype; for total cell number as % of the initial cell numbers: 48 h in culture with Epo, with colcemid, n=4; for effect on cell proliferation of erythroid cultures (CFSE): erythroid cultures from thalassemic mice, AG490 100 uM, FIG. 2A
Method: Spleens from […] were harvested and mechanically dissociated into single cell suspensions. Murine mononuclear cells were then isolated by centrifugation using Lympholyte-M density gradients (Cedarlane Laboratories Ltd, Westbury, N.Y.) following the manufacturer's instructions. Cells were incubated on ice for 15 minutes with a cocktail containing 10 μg each of non-erythroid FITCconjugated antibodies (GR-1, MAC1, CD4, CD8, CD11b, and CD49) (BD PharMingen). After washing, the cells were incubated for 15 minutes at 4° C. with anti-FITC microbeads (Miltenyi Biotech, Auburn, Calif.). The cell suspension was placed on a magnetic column and the eluted erythroid cells were kept for RNA extraction, protein analysis, in vitro culture with carboxy-fluorescein diacetate succinimidyl ester (CFSE; MolecularProbes, Eugene, Oreg.) staining or flow cytometric analysis. CFSE was added to the cells to give a final concentration of 1.25 uM. After 10 minutes at 37° C., further dye uptake was prevented by addition of 5 volumes of cold medium and incubated in ice for 5 minutes. The cells were then washed three times and seeded at 1×10^7 cells/ml in IMDM with 30% FBS (Hyclone, South Logan, Utah 84321), 1% deionized BSA, 100 IU/ml of penicillin, 100 ug/mL of streptomycin (Mediatech, Manassas, Va.), […] beta-thioglycerol (mTG; Sigma-Aldrich), and […] rHuEpo (10 U/ml; Amgen Mfg. Ltd. Thousand Oaks, Calif.). […] In order to visualize cell division, the cultured erythroid cells were stained with CFSE. Once the dye is inside the cell, it binds to cytoskeletal proteins and is divided equally between daughter cells. Thus, it is possible to determine if cells are dividing by monitoring the reduction of CFSE fluorescence (FIG. 2A).

[2] = tested on: normal and thalassemic mice; experiment: In vivo administration of Jak2 inhibitor to normal and thalassemic mice; parameters: species or system mouse
Text: Mouse models that mimic beta-thalassemia intermedia (th3/+) and major (th3/th3) were used. (Rivella, S. et al, A novel murine model of Cooley anemia and its rescue by lentiviral mediated human beta globin gene transfer. Blood (2003) 101: 2932-2939, hereby incorporated by reference.) In th3/+ mice both the betaminor and betamajor gens have been deleted from one chromosome. Mice completely lacking adult beta-globin (th3/th3) die late in gestation. To circumvent this problem, bone marrow transplantation is conducted wherein hematopoietic fetal liver cells (HFLCs) were harvested from th3/th3 embryos at embryonic day 14.5 (E14.5) and injected into lethally irradiated syngeneic wild-type (wt) adult recipients.
Compound A, a Jak2 inhibitor, was administered to cohorts of normal and thalassemic mice of different ages. […] These observations indicate that the main role of pJak2 is to propel the erythropoietic drive.

| Structure (SMILES) | CFSE FACS profile versus untreated cells [1] | total cell number as % of the initial cell numbers ([1]; th3/+ erythroid cells) [%] | total cell number as % of the initial cell numbers ([1]; th3/th3 erythroid cells) [%] | total cell number as % of the initial cell numbers ([1]; wt erythroid cells) [%] | effect on cell proliferation of erythroid cultures (CFSE) [1] | spleen size ([2]; 6- and 12-week old thalassemic mice, 10 and 18 days of treatment) | Hb levels ([2]; thalassemic mice, 10 and 18 days of treatment) | erythropoiesis and size of the spleen ([2]; young normal animals) |
| --- | --- | --- | --- | --- | --- | --- | --- | --- |
| CN[C@H]1CCc2cc(OC)c(OC)c(OC)c2-c2ccc(OC)c(=O)cc21 [colcemid] | little difference from untreated cells | 88±18 | 72±25 | 46±9 | – | – | – | – |
| N#C/C(=C/c1ccc(O)c(O)c1)C(=O)NCc1ccccc1 [AG490] | little difference from untreated cells | – | – | – | blocking cell proliferation | – | – | – |
| Cc1cnc(Nc2ccc(N3CCN(C)CC3)cc2)nc1Nc1cccc(S(=O)(=O)NC(C)(C)C)c1 [compound A] | – | – | – | – | blocking cell proliferation | dramatically reduced | decreasing Hb levels | affected both erythropoiesis and the size of the spleen |
